{"source": "PubChem BioAssay (NCI)", "assay_in_all_cases": "NCI tumour cell line growth inhibition, 48 h", "key": {"A498 renal": {"tested_on": "A498 renal"}, "BT-549 breast": {"tested_on": "BT-549 breast"}, "CAKI-1 renal": {"tested_on": "CAKI-1 renal"}, "HOP-92 NSCLC": {"tested_on": "HOP-92 NSCLC"}, "K-562 leukemia": {"tested_on": "K-562 leukemia"}, "MCF7 breast": {"tested_on": "MCF7 breast"}, "RXF 393 renal": {"tested_on": "RXF 393 renal"}, "SK-OV-3 ovarian": {"tested_on": "SK-OV-3 ovarian"}, "SNB-19 CNS": {"tested_on": "SNB-19 CNS"}, "SW-620 colon": {"tested_on": "SW-620 colon"}}, "note": "Values joined by “and” are separate entries in the source; they are usually repeats but may differ in a detail not shown here. Equal values may be shown once.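 In this assay, cells in 96-well plates receive the compound at five concentrations for 48 hours. Endpoints are linearly interpolated between the surrounding concentrations. GI50 is the concentration that inhibits growth by half. TGI is the concentration that stops growth completely.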 *1 amine or outer side, *2 acyl side, *3 side chain or, on linkers, in order; H or OH if unused. Where a SMILES comes first, the peptide text is derived from it. [ ]: non-standard residue; d: D form. X56 = CC[C@H](C)[C@H](OC(=O)[C@@H](C)[C@@H](CC)N[*:1])C(=O)[*:2]; X32 = C[C@H](N[*:1])C(=O)C(C)(C)C(=O)[*:2]; NMeY = CN[C@@H](Cc1ccc(O)cc1)C(=O)O; NMeL = CN[C@@H](CC(C)C)C(=O)O; NMeV = CN[C@H](C(=O)O)C(C)C", "data": [{"smiles": "O=C1CS/C(=N\\S(=O)(=O)c2ccc(N3N=C4c5ccccc5CC4C3c3ccc(Cl)cc3)cc2)N1c1ccccc1", "note": "(configuration not stated)", "values": [{"measurement": "GI50", "setting": "A498 renal", "value": 25.6, "unit": "µM"}, {"measurement": "TGI", "setting": "A498 renal", "value": 53, "unit": "µM"}, {"measurement": "GI50", "setting": "BT-549 breast", "value": 35.6, "unit": "µM"}, {"measurement": "TGI", "setting": "BT-549 breast", "value": "> 100", "unit": "µM"}, {"measurement": "GI50", "setting": "CAKI-1 renal", "value": 35.8, "unit": "µM"}, {"measurement": "TGI", "setting": "CAKI-1 renal", "value": "> 100", "unit": "µM"}, {"measurement": "GI50", "setting": "HOP-92 NSCLC", "value": 27, "unit": "µM"}, {"measurement": "TGI", "setting": "HOP-92 NSCLC", "value": "> 100", "unit": "µM"}, {"measurement": "GI50", "setting": "K-562 leukemia", "value": 18.7, "unit": "µM"}, {"measurement": "TGI", "setting": "K-562 leukemia", "value": 40.3, "unit": "µM"}, {"measurement": "GI50", "setting": "MCF7 breast", "value": 18.7, "unit": "µM"}, {"measurement": "TGI", "setting": "MCF7 breast", "value": 47.9, "unit": "µM"}, {"measurement": "GI50", "setting": "RXF 393 renal", "value": 29.4, "unit": "µM"}, {"measurement": "TGI", "setting": "RXF 393 renal", "value": 81.3, "unit": "µM"}, {"measurement": "GI50", "setting": "SK-OV-3 ovarian", "value": 31.4, "unit": "µM"}, {"measurement": "TGI", "setting": "SK-OV-3 ovarian", "value": 95.2, "unit": "µM"}, {"measurement": "GI50", "setting": "SNB-19 CNS", "value": 23.3, "unit": "µM"}, {"measurement": "TGI", "setting": "SNB-19 CNS", "value": "> 100", "unit": "µM"}, {"measurement": "GI50", "setting": "SW-620 colon", "value": 37.4, "unit": "µM"}, {"measurement": "TGI", "setting": "SW-620 colon", "value": "> 100", "unit": "µM"}]}, {"smiles": "CC[C@H](C)[C@@H]1OC(=O)[C@@H](C)[C@@H](CC)NC(=O)[C@H](C)NC(=O)C(C)(C)C(=O)[C@H](C)NC(=O)[C@H](Cc2ccc(OC)cc2)N(C)C(=O)[C@H](C(C)C)N(C)C(=O)CNC(=O)[C@H](CC(C)C)N(C)C(=O)CNC1=O", "note": "(cyclo(A[X56]G[NMeL]G[NMeV][NMeY](Me)[X32]))", "values": [{"measurement": "GI50", "setting": "A498 renal", "value": 0.0398, "unit": "µM"}, {"measurement": "TGI", "setting": "A498 renal", "value": "1.38 µM and 0.197 µM"}, {"measurement": "TGI", "setting": "BT-549 breast", "value": 0.28, "unit": "µM"}, {"measurement": "GI50", "setting": "CAKI-1 renal", "value": 0.0259, "unit": "µM"}, {"measurement": "TGI", "setting": "CAKI-1 renal", "value": "0.122 µM and 0.0888 µM"}, {"measurement": "GI50", "setting": "HOP-92 NSCLC", "value": 0.0156, "unit": "µM"}, {"measurement": "TGI", "setting": "HOP-92 NSCLC", "value": "0.238 µM and 0.0316 µM"}, {"measurement": "GI50", "setting": "K-562 leukemia", "value": "< 0.0322", "unit": "µM"}, {"measurement": "TGI", "setting": "K-562 leukemia", "value": 0.634, "unit": "µM"}, {"measurement": "TGI", "setting": "MCF7 breast", "value": 1.26, "unit": "µM"}, {"measurement": "GI50", "setting": "RXF 393 renal", "value": 0.0274, "unit": "µM"}, {"measurement": "TGI", "setting": "RXF 393 renal", "value": "0.0483 µM and 0.104 µM"}, {"measurement": "GI50", "setting": "SK-OV-3 ovarian", "value": 0.024, "unit": "µM"}, {"measurement": "GI50", "setting": "SNB-19 CNS", "value": 0.211, "unit": "µM"}, {"measurement": "TGI", "setting": "SNB-19 CNS", "value": "0.492 µM and 0.688 µM"}, {"measurement": "GI50", "setting": "SW-620 colon", "value": "< 0.0316", "unit": "µM"}, {"measurement": "TGI", "setting": "SW-620 colon", "value": "> 39.1", "unit": "µM"}]}, {"smiles": "Cc1c(N=Cc2ccc(N(CCC#N)CCC#N)cc2)c(=O)n(-c2ccccc2)n1C", "values": [{"measurement": "TGI", "setting": "A498 renal", "value": "> 100", "unit": "µM"}, {"measurement": "TGI", "setting": "BT-549 breast", "value": "> 100", "unit": "µM"}, {"measurement": "TGI", "setting": "CAKI-1 renal", "value": "> 100", "unit": "µM"}, {"measurement": "TGI", "setting": "HOP-92 NSCLC", "value": 99, "unit": "µM"}, {"measurement": "TGI", "setting": "K-562 leukemia", "value": "> 100", "unit": "µM"}, {"measurement": "TGI", "setting": "MCF7 breast", "value": "> 100", "unit": "µM"}, {"measurement": "TGI", "setting": "RXF 393 renal", "value": 92.1, "unit": "µM"}, {"measurement": "TGI", "setting": "SK-OV-3 ovarian", "value": "> 100", "unit": "µM"}, {"measurement": "TGI", "setting": "SNB-19 CNS", "value": "> 100", "unit": "µM"}, {"measurement": "TGI", "setting": "SW-620 colon", "value": "> 100", "unit": "µM"}]}, {"smiles": "Cn1c(=O)c(Oc2ccccc2)cc2cnc(NC3CCOCC3)nc21", "values": [{"measurement": "GI50", "setting": "A498 renal", "value": "> 25", "unit": "µM"}, {"measurement": "TGI", "setting": "A498 renal", "value": "> 25", "unit": "µM"}, {"measurement": "GI50", "setting": "BT-549 breast", "value": "> 25", "unit": "µM"}, {"measurement": "TGI", "setting": "BT-549 breast", "value": "> 25", "unit": "µM"}, {"measurement": "GI50", "setting": "CAKI-1 renal", "value": "> 25", "unit": "µM"}, {"measurement": "TGI", "setting": "CAKI-1 renal", "value": "> 25", "unit": "µM"}, {"measurement": "GI50", "setting": "HOP-92 NSCLC", "value": "> 25", "unit": "µM"}, {"measurement": "TGI", "setting": "HOP-92 NSCLC", "value": "> 25", "unit": "µM"}, {"measurement": "GI50", "setting": "K-562 leukemia", "value": "> 25", "unit": "µM"}, {"measurement": "TGI", "setting": "K-562 leukemia", "value": "> 25", "unit": "µM"}, {"measurement": "GI50", "setting": "MCF7 breast", "value": "> 25", "unit": "µM"}, {"measurement": "TGI", "setting": "MCF7 breast", "value": "> 25", "unit": "µM"}, {"measurement": "GI50", "setting": "RXF 393 renal", "value": "> 25", "unit": "µM"}, {"measurement": "TGI", "setting": "RXF 393 renal", "value": "> 25", "unit": "µM"}, {"measurement": "GI50", "setting": "SK-OV-3 ovarian", "value": "> 25", "unit": "µM"}, {"measurement": "TGI", "setting": "SK-OV-3 ovarian", "value": "> 25", "unit": "µM"}, {"measurement": "GI50", "setting": "SNB-19 CNS", "value": "> 25", "unit": "µM"}, {"measurement": "TGI", "setting": "SNB-19 CNS", "value": "> 25", "unit": "µM"}, {"measurement": "GI50", "setting": "SW-620 colon", "value": "> 25", "unit": "µM"}, {"measurement": "TGI", "setting": "SW-620 colon", "value": "> 25", "unit": "µM"}]}, {"smiles": "N#Cc1c(N)nc(N2CCOCC2)c(C#N)c1-c1ccccc1Cl", "values": [{"measurement": "GI50", "setting": "A498 renal", "value": 2.28, "unit": "µM"}, {"measurement": "TGI", "setting": "A498 renal", "value": 25.2, "unit": "µM"}, {"measurement": "GI50", "setting": "BT-549 breast", "value": 30.5, "unit": "µM"}, {"measurement": "TGI", "setting": "BT-549 breast", "value": "> 100", "unit": "µM"}, {"measurement": "GI50", "setting": "CAKI-1 renal", "value": 32.4, "unit": "µM"}, {"measurement": "TGI", "setting": "CAKI-1 renal", "value": "> 100", "unit": "µM"}, {"measurement": "GI50", "setting": "HOP-92 NSCLC", "value": 16.9, "unit": "µM"}, {"measurement": "TGI", "setting": "HOP-92 NSCLC", "value": 72.4, "unit": "µM"}, {"measurement": "GI50", "setting": "K-562 leukemia", "value": 60.9, "unit": "µM"}, {"measurement": "TGI", "setting": "K-562 leukemia", "value": "> 100", "unit": "µM"}, {"measurement": "GI50", "setting": "MCF7 breast", "value": 17.7, "unit": "µM"}, {"measurement": "TGI", "setting": "MCF7 breast", "value": 88.7, "unit": "µM"}, {"measurement": "GI50", "setting": "RXF 393 renal", "value": 17.5, "unit": "µM"}, {"measurement": "TGI", "setting": "RXF 393 renal", "value": 72.3, "unit": "µM"}, {"measurement": "GI50", "setting": "SK-OV-3 ovarian", "value": 41.2, "unit": "µM"}, {"measurement": "TGI", "setting": "SK-OV-3 ovarian", "value": "> 100", "unit": "µM"}, {"measurement": "GI50", "setting": "SNB-19 CNS", "value": 48.5, "unit": "µM"}, {"measurement": "TGI", "setting": "SNB-19 CNS", "value": "> 100", "unit": "µM"}, {"measurement": "GI50", "setting": "SW-620 colon", "value": "> 100", "unit": "µM"}, {"measurement": "TGI", "setting": "SW-620 colon", "value": "> 100", "unit": "µM"}]}]}
